The values that follow come from PMC3948622, “Docking, Synthesis and Antiproliferative Activity of N-Acylhydrazone Derivatives Designed as Combretastatin A4 Analogues” (PLoS ONE, 2014).

Converted amounts (≈) assume the structure as drawn. Where two headings read alike, the source gives them in different places.

Broadly, the IC50 is the point on the concentration scale where inhibition reaches its midpoint. In general, solubility refers to how much of the substance goes into solution per volume.

The subject of data set [1] is NCI-H358M (pulmonary bronchio-alveolar carcinoma). The experiment in a line: In vitro antiproliferative MTT assay, NCI-H358M. The data set is classed as cell-based. In general terms: Tetrazolium assays rely on reduction of a dye to a coloured formazan, in cell work by metabolically active cells.
In data set [2] the test system is SF-295 (human glioblastoma). The experiment in a line: In vitro antiproliferative MTT assay, SF-295. The data set is classed as cell-based.
Data set [3] relates to human lymphocytes. The experiment in a line: In vitro antiproliferative assay, human lymphocytes. The data set is classed as cell-based. The following applies: Lymphocyte, Table 2.
Data set [4] concerns HCT-8 (adenocarcinoma ileocecal). Briefly: In vitro antiproliferative MTT assay, HCT-8. The data set is classed as cell-based.
Data set [5] concerns BALB/c nude mice. The following applies: for Survival: 4 days. As to the method: During the HFA, tumor cells (i.e., SF-295 and HCT-116) were cultivated within biocompatible, semipermeable polyvinylidene fluoride hollow fibers (HFs) and subcutaneously (s.c.) implanted within the dorsal portion of BALB/c nude mice. LASSBio-1586 (5b) and 5-Fluorouracil (5-FU), which was the positive control, were administered intraperitoneally for 4 consecutive days. On day 5, the fibers were removed to quantify the antiproliferative activity of 5b and 5-FU.
A total of 26 female BALB/c nude (nu/nu) mice aging 6–8 weeks were obtained from the animal facilities of State University of São Paulo (USP), Faculty of Medicine, São Paulo (SP), Brazil. They were kept in well-ventilated and sterile cages (Alesco, São Paulo) under standard conditions of light (12 h with alternative day and night cycles) and temperature (22±1°C) and were housed with access to commercial sterile rodent stock diet (Nutrilabor, São Paulo, Brazil) and water ad libitum. As previously mentioned procedures are in accordance with guidelines for the welfare of animals in experimental neoplasia and with national and international standard on the care and use of experimental laboratory animals and were approved by the local Ethical Committee on Animal Research (Process No. 102/2007).
Mice were anaesthetized with ketamine (90 mg/kg) - xylazine (4.5 mg/kg) (Sigma Aldrich). Groups were divided into: a) Negative control (DMSO 5%, n = 6); b) Positive control (5-Flouoruracil, 5-FU, 25 mg/kg/day, n = 7) (Sigma Aldrich); c) LASSBio-1586 (5b; 25 mg/kg/day, n = 7); d) LASSBio-1586 (5b; 50 mg/kg/day, n = 6). A small incision in the neck was incised to permit subcutaneous (s.c.) implantation of the fibers in the dorsal part of the animal. Each animal received 2 fibers at s.c. site. All incisions were sealed with a surgical stapler. The test compounds were administered intraperitoneally during 4 consecutive days. On day 5, fibers were removed to quantify the antiproliferative capacity as described above.

A short description of data set [6]: Aqueous solubility assay by ultraviolet spectroscopy. Conditions: water (saturated aqueous solution), thermodynamic from solid, 2 hours at 37°C, read-out: Aq. Solubility. The data set is classed as physicochemical.
Setting [7] is: IC50 for human lymphocytes/IC50 for cancer cell line.
The mark [8] stands for this setting: SI of 5b relative to SI of CA-4.

`COc1cc(C(=O)N/N=C/c2ccccc2)cc(OC)c1OC` [Compound 5b, (E)-N′benzylidene-3,4,5-trimetoxybenzohydrazide]: in data set [1] (setting [7]), the “SI Lymphocyte/ NCI-H358M” value was determined as 4.05±0.25. Besides, the IC50 in data set [1] (NCI-H358M, Table 2, MTT) was 350 nM; in data set [2] (Homo sapiens, SF-295, Table 2, MTT, read-out: IC50 SF295) it was 260 nM; in data set [3] it was 1340 nM; in data set [4] (Homo sapiens, HCT-8, Table 2, MTT) it was 450 nM. Further, the “comparative selectivity index (CA-4 vs 5b) NCI-H258M” value in data set [1] (setting [8]) was determined as 9.5. Further, the “SI Lymphocyte/ SF-295” value in data set [2] (setting [7]) amounted to 4.88±0.42. Besides, in data set [2] (setting [8]), the “comparative selectivity index (CA-4 vs 5b) SF-295” value came out at 13. Also, in data set [4] (setting [7]), the “SI Lymphocyte/ HCT-8” value is listed as 2.86±0.13. The Survival in data set [5] (25 mg/kg/day intraperitoneally) is 7/7; in data set [5] (50 mg/kg/day intraperitoneally), 6/6. Also, the “deaths of mice during treatment” value in data set [5] (intraperitoneally for 4 consecutive days, HFA) is given as “no deaths occurred”. The solubility at 2 h in data set [6] was 39.5 µg/mL (≈ 126 µM).
